From patent publication US7977379B2, “Method for angiogenesis inhibition or immunostimulation” (priority 2002, dated 2011) come the findings set out here.

Assay [1] relates to angiogenesis induced by means of MATRIGEL matrix (heparin, a-FGF). The assay can be described thus: Test Example 1: angiogenesis induced by […] matrix transplanted subcutaneously (method of Passaniti et al). It is filed as in vivo, C57BL/6 female mice. Particulars: for angiogenesis inhibition effect (in words): MATRIGEL weight and hemoglobin vs control group; for MATRIGEL Matrix weight / Quantity of hemoglobin: sixth day, n=5, mean±SE; for MATRIGEL Matrix weight: freeze-dried. From the text: Angiogenesis inhibition action of anhydrous glutamic acid, its derivatives, and various processed materials containing them concerning the present invention was examined by degree of angiogenesis induced by means of […]™ matrix (made by Becton Dikinson Labware Company, it is “cell culture backing material”, following “[…]”.) according to a method of Passaniti et al (Laboratory Invest., Vol. 67, Page 519-528, 1992).
An example of the […] matrix is shown with the following: BD Matrigel Basement Membrane Matrix is a solubilized basement membrane preparation extracted from the Engelbreth-Holm-Swarm (EHS) mouse sarcoma, a tumor rich in ECM proteins. Its major component is laminin, followed by collagen IV, heparan sulfate proteoglycans, entactin and nidogen.35 It also contains TGF-β fibroblast growth factor, tissue plasminogen activator36 and other growth factors which occur naturally in the EHS tumor. At room temperature, BD Matrigel Matrix polymerizes to produce biologically active matrix material resembling the mammalian cellular basement membrane.
More specifically, normal mice (5 mice/1 group) were used after breeding C57BL/6 female mice (5 week old, purchased from Charles River JAPAN, Inc.) preliminarily for one week. While cooling test materials as shown in the following, each of the test materials 0.5 ml were transplanted to subcutaneous of abdomen of the mice. […] was taken out on the sixth day after transplantation, and state of angiogenesis was observed. In addition, the […] was freeze-dried, and it was estimated the weight. Furthermore, pure water 1 ml was added to the […]. After homogenizing by Polytron and centrifuging at 2000 rpm for five minutes, supernatant was filtrated through filter with 0.2 μm and hemoglobin dosage was measured by using Hemoglobin-TestWako™ (made by Wako Pure Chemical Industries, Ltd.).
Group 0 of nothing addition: […]
Control group: […], heparin (64 units), Acidic Fibroblast Growth Factor (it is abbreviated to a-FGF as follows.) (1 ng/ml)
Group 1 of test material addition: […], heparin (64 units), a-FGF (1 ng/ml), sample 3 (800 μg/ml)
Group 2 of test material addition: […], heparin (64 units), a-FGF (1 ng/ml), sample 3 (400 μg/ml)
Group 3 of test material addition: […], heparin (64 units), a-FGF (1 ng/ml), sample 3 (200 μg/ml)
Group 4 of test material addition: […], heparin (64 units), a-FGF (1 ng/ml), sample 4 (800 μg/ml)
Group 5 of test material addition: […], heparin (64 units), a-FGF (1 ng/ml), sample 1 (600 μg/ml)
Group 6 of test material addition: […], heparin (64 units), a-FGF (1 ng/ml), sample 2 (800 μg/ml)
Group 7 of test material addition: […], heparin (64 units), a-FGF (1 ng/ml), sample1+sample 3 (for each 200 μg/ml)
Group 8 of test material addition: […], heparin (64 units), a-FGF (1 ng/ml), sample 5 (600 μg/ml)
Group 9 of test material addition: […], heparin (64 units), a-FGF (1 ng/ml), reference sample 1 (800 μg/ml)
As is apparent from each table, in control group, angiogenesis was promoted remarkably and weight of […] and hemoglobin dosage were increased compared with a group 0 of nothing addition. […] However, the angiogenesis inhibition effect was small with reference sample 1 (hot water extract of an agaricus mushroom).

For assay [2] the test system is unchanged. The assay can be described thus: Test Example 4: angiogenesis induced by […] matrix (same method as test example 1). It is filed as in vivo, C57BL/6 female mice. Particulars: for angiogenesis inhibition effect (in words): MATRIGEL weight and hemoglobin vs control group; for MATRIGEL weight / Quantity of hemoglobin: sixth day, n=5, mean±SE. Here is the method: More specifically, normal mice (5 mice/1 group) were used after breeding C57BL/6 female mice (5 week old, purchased from Charles River JAPAN, Inc.) preliminarily for one week. While cooling test materials as shown in the following, each of the test materials 0.5 ml were transplanted to subcutaneous of abdomen of the mice. […] was taken out on the sixth day after transplantation, and state of angiogenesis was observed. In addition, the […] was freeze-dried, and it was weighed. […] Group 0 of nothing addition: […]

The mark [3] stands for this setting: material 800 μg/mL in MATRIGEL with heparin and a-FGF.
The mark [4] stands for this setting: material 200 μg/mL in MATRIGEL with heparin and a-FGF.
[5] abbreviates: material 400 μg/mL in MATRIGEL with heparin and a-FGF.

For `Cl.NC(CCC(=O)O)C(=O)O` (racemic) [sample 4, anhydrous DL-glutamate acid hydrochloride], the “angiogenesis inhibition effect (in words)” value in assay [1] is given as “slightly low, but almost equal to sample 3”. Moreover, in assay [1] (setting [3]), the “MATRIGEL Matrix weight” value was 237.3 ± 30.1 mg and the Quantity of hemoglobin amounted to 13.0 ± 2.9 mg.
`C[C@H](N)C(=O)O` [alanine, reference compound]: the “angiogenesis inhibition effect (in words)” value in assay [2] is “not recognized”.
On to `Cl.N[C@@H](CCC(=O)O)C(=O)O` [sample 3, anhydrous L-glutamate acid hydrochloride], for which the “angiogenesis inhibition effect (in words)” value in assay [1] is recorded as “excellent angiogenesis inhibition effect”. The entries for the “MATRIGEL Matrix weight” value in assay [1] (setting [4]), in assay [1] (setting [5]) and in assay [1] (setting [3]) were 276.6 ± 27.6 mg, 232.2 ± 52.7 mg and 110.9 ± 11.4 mg, respectively. Also, the figures for the Quantity of hemoglobin in assay [1] (setting [4]), in assay [1] (setting [5]) and in assay [1] (setting [3]) were 21.5 ± 4.0 mg, 15.5 ± 4.6 mg and 3.9 ± 0.5 mg, respectively.
For the compound `O=C(O)[C@@H]1CCCN1` [proline, reference compound], the “angiogenesis inhibition effect (in words)” value in assay [2] was “not recognized”.
Consider `O=C1CCC(C(=O)O)N1.[Na]` (racemic) [sample 9, DL-pyroglutamic acid sodium], for which the “angiogenesis inhibition effect (in words)” value in assay [2] was “slightly low, but almost equal to sample 8”. Moreover, in assay [2] (setting [3]), the MATRIGEL weight was 209.0 ± 30.8 mg and the Quantity of hemoglobin came to 15.8 ± 2.7 mg/MATRIGEL.
Turning to `O=C1CC[C@@H](C(=O)O)N1.[Na]` [sample 8, L-pyroglutamic acid sodium], the “angiogenesis inhibition effect (in words)” value in assay [2] is recorded as “excellent angiogenesis inhibition effect”. In addition, the MATRIGEL weight in assay [2] (setting [4]) is recorded as 265.3 ± 18.6 mg; in assay [2] (setting [5]) it was 190.2 ± 30.4 mg; in assay [2] (setting [3]), 121.5 ± 28.1 mg. Moreover, the Quantity of hemoglobin is 23.4 ± 2.0 mg/MATRIGEL in assay [2] (setting [4]), 17.5 ± 3.6 mg/MATRIGEL in assay [2] (setting [5]) and 4.8 ± 1.2 mg/MATRIGEL in assay [2] (setting [3]).
